# Results from PubChem BioAssay AID1259407 (Chemical Carcinogenesis Research Information System (CCRIS), 2018).
# Calls of active or inactive are those of the source. How the calls were made is not given here. Where a SMILES comes first, the peptide text is derived from it. [ ]: non-standard residue; d: D form. ξ: configuration not given here. Trp(1-OMe) = COn1cc(C[C@H](N)C(=O)O)c2ccccc21; Asu = N[C@@H](CCCCCC(=O)O)C(=O)O; Ile(3ξ) = CCC(C)[C@H](N)C(=O)O; dPip = O=C(O)[C@H]1CCCCN1
# Test system: CCRIS mutagenicity, Ames/micronucleus/aberration tests
# Test: CCRIS mutagenicity studies
# [1] = Test System: AMES SALMONELLA TYPHIMURIUM, Strain/Indicator: TA98, Metabolic Activation: NONE, Method: PREINCUBATION
# [2] = Test System: AMES SALMONELLA TYPHIMURIUM, Strain/Indicator: TA100, Metabolic Activation: NONE, Method: PREINCUBATION
# [3] = Test System: AMES SALMONELLA TYPHIMURIUM, Strain/Indicator: TA100, Metabolic Activation: RAT, LIVER, S-9, AROCLOR 1254, Method: PREINCUBATION
# [4] = Test System: AMES SALMONELLA TYPHIMURIUM, Strain/Indicator: TA102, Metabolic Activation: NONE, Method: PREINCUBATION
# [5] = Test System: AMES SALMONELLA TYPHIMURIUM, Strain/Indicator: TA1535, Metabolic Activation: NONE, Method: PREINCUBATION
# [6] = Test System: AMES SALMONELLA TYPHIMURIUM, Strain/Indicator: TA100, Metabolic Activation: NONE, Method: STANDARD PLATE
smiles,measurement,setting,value
NC1c2ccccc2-c2ccccc21,mutagenic call,"Test System: AMES SALMONELLA TYPHIMURIUM, Strain/Indicator: TA98, Metabolic Activation: RAT, LIVER, S-9, AROCLOR 1254 (2 OR 4%), Method: STANDARD PLATE",inactive; negative
same,mutagenic call,"Test System: AMES SALMONELLA TYPHIMURIUM, Strain/Indicator: TA100, Metabolic Activation: RAT, LIVER, S-9, AROCLOR 1254 (2%), Method: STANDARD PLATE",inactive; negative
same,mutagenic call,"Test System: AMES SALMONELLA TYPHIMURIUM, Strain/Indicator: TA1535, Metabolic Activation: RAT, LIVER, S-9, AROCLOR 1254 (2%), Method: STANDARD PLATE",inactive; negative
same,mutagenic call,"Test System: AMES SALMONELLA TYPHIMURIUM, Strain/Indicator: TA1537, Metabolic Activation: RAT, LIVER, S-9, AROCLOR 1254 (2%), Method: STANDARD PLATE",inactive; negative
CCC(C)[C@@H]1NC(=O)[C@H](Cc2cn(OC)c3ccccc23)NC(=O)[C@H](CCCCCC(=O)OC)NC(=O)[C@H]2CCCCN2C1=O (some centres undefined) (cyclo([Asu](OMe)[Trp(1-OMe)][Ile(3ξ)][dPip])),mutagenic call,"End Point: IN VITRO CHROMOSOMAL ABERRATIONS, Test System: CHO CELLS, Metabolic Activation: NONE",active; positive (structural changes)
same,mutagenic call,"End Point: IN VITRO CHROMOSOMAL ABERRATIONS, Test System: CHO CELLS, Metabolic Activation: RAT, LIVER, S-9, AROCLOR 1254",active; positive (structural changes)
same,mutagenic call,"End Point: IN VIVO MICRONUCLEUS, Test System: BONE MARROW POLYCHROMATIC ERYTHROCYTES, Species: MOUSE, Strain/Sex: ICR/MALE, Route: IP INJECTION",active; positive
same,mutagenic call,[1],inactive; negative
same,mutagenic call,"Test System: AMES SALMONELLA TYPHIMURIUM, Strain/Indicator: TA98, Metabolic Activation: RAT, LIVER, S-9, AROCLOR 1254, Method: PREINCUBATION",inactive; negative
same,mutagenic call,[2],inactive; negative
same,mutagenic call,[3],inactive; negative
same,mutagenic call,[4],inactive; negative
same,mutagenic call,"Test System: AMES SALMONELLA TYPHIMURIUM, Strain/Indicator: TA102, Metabolic Activation: RAT, LIVER, S-9, AROCLOR 1254, Method: PREINCUBATION",inactive; negative
same,mutagenic call,[5],inactive; negative
same,mutagenic call,"Test System: AMES SALMONELLA TYPHIMURIUM, Strain/Indicator: TA1535, Metabolic Activation: RAT, LIVER, S-9, AROCLOR 1254, Method: PREINCUBATION",inactive; negative
same,mutagenic call,"Test System: AMES SALMONELLA TYPHIMURIUM, Strain/Indicator: TA1537, Metabolic Activation: NONE, Method: PREINCUBATION",inactive; negative
same,mutagenic call,"Test System: AMES SALMONELLA TYPHIMURIUM, Strain/Indicator: TA1537, Metabolic Activation: RAT, LIVER, S-9, AROCLOR 1254, Method: PREINCUBATION",inactive; negative
Oc1cccc2cc3c4ccccc4c4ccccc4c3cc12,mutagenic call,[3],active; positive
Cc1snc2ccccc12,mutagenic call,"Test System: AMES SALMONELLA TYPHIMURIUM, Strain/Indicator: TA98, Metabolic Activation: NONE, Method: STANDARD PLATE",inactive; negative
same,mutagenic call,"Test System: AMES SALMONELLA TYPHIMURIUM, Strain/Indicator: TA98, Metabolic Activation: S-9, Method: STANDARD PLATE",inactive; negative
same,mutagenic call,[6],inactive; negative
same,mutagenic call,"Test System: AMES SALMONELLA TYPHIMURIUM, Strain/Indicator: TA100, Metabolic Activation: S-9, Method: STANDARD PLATE",active; positive
same,mutagenic call,"Test System: AMES SALMONELLA TYPHIMURIUM, Strain/Indicator: TA1535, Metabolic Activation: NONE, Method: STANDARD PLATE",inactive; negative
same,mutagenic call,"Test System: AMES SALMONELLA TYPHIMURIUM, Strain/Indicator: TA1535, Metabolic Activation: S-9, Method: STANDARD PLATE",inactive; negative
same,mutagenic call,"Test System: AMES SALMONELLA TYPHIMURIUM, Strain/Indicator: TA1537, Metabolic Activation: NONE, Method: STANDARD PLATE",inactive; negative
same,mutagenic call,"Test System: AMES SALMONELLA TYPHIMURIUM, Strain/Indicator: TA1537, Metabolic Activation: S-9, Method: STANDARD PLATE",inactive; negative
CC1=CC(=O)C(C(C)C)=CC1=O,mutagenic call,[1],inactive; negative
same,mutagenic call,"Test System: AMES SALMONELLA TYPHIMURIUM, Strain/Indicator: TA98, Metabolic Activation: RAT, LIVER, S-9, PHENOBARBITAL AND 5,6-BENZOFLAVONE, Method: PREINCUBATION",inactive; negative
same,mutagenic call,[2],inactive; negative
same,mutagenic call,"Test System: AMES SALMONELLA TYPHIMURIUM, Strain/Indicator: TA100, Metabolic Activation: RAT, LIVER, S-9, PHENOBARBITAL AND 5,6-BENZOFLAVONE, Method: PREINCUBATION",inactive; negative
same,mutagenic call,[4],inactive; negative
same,mutagenic call,"Test System: AMES SALMONELLA TYPHIMURIUM, Strain/Indicator: TA102, Metabolic Activation: RAT, LIVER, S-9, PHENOBARBITAL AND 5,6-BENZOFLAVONE, Method: PREINCUBATION",inactive; negative
same,mutagenic call,"Test System: AMES SALMONELLA TYPHIMURIUM, Strain/Indicator: TA104, Metabolic Activation: RAT, LIVER, S-9, PHENOBARBITAL AND 5,6-BENZOFLAVONE, Method: PREINCUBATION",inactive; negative
same,mutagenic call,"Test System: AMES SALMONELLA TYPHIMURIUM, Strain/Indicator: TA2637, Metabolic Activation: NONE, Method: PREINCUBATION",active; positive
same,mutagenic call,"Test System: AMES SALMONELLA TYPHIMURIUM, Strain/Indicator: TA2637, Metabolic Activation: RAT, LIVER, S-9, PHENOBARBITAL AND 5,6-BENZOFLAVONE, Method: PREINCUBATION",inactive; negative
CC=C(Cl)Cl,mutagenic call,"Test System: AMES SALMONELLA TYPHIMURIUM, Strain/Indicator: RSJ100, Metabolic Activation: NONE, Method: PREINCUBATION",active; positive
same,mutagenic call,"Test System: AMES SALMONELLA TYPHIMURIUM, Strain/Indicator: RSJ100, Metabolic Activation: NONE, Method: VAPOR PHASE",active; positive
same,mutagenic call,[1],inactive; negative
same,mutagenic call,"Test System: AMES SALMONELLA TYPHIMURIUM, Strain/Indicator: TA98, Metabolic Activation: RAT, LIVER, S-9, AROCLOR, Method: PREINCUBATION",inactive; negative
same,mutagenic call,[2],inactive; negative
same,mutagenic call,"Test System: AMES SALMONELLA TYPHIMURIUM, Strain/Indicator: TA100, Metabolic Activation: RAT, LIVER, S-9, AROCLOR, Method: PREINCUBATION",inactive; negative
same,mutagenic call,"Test System: AMES SALMONELLA TYPHIMURIUM, Strain/Indicator: TA104, Metabolic Activation: NONE, Method: PREINCUBATION",inactive; negative
same,mutagenic call,"Test System: AMES SALMONELLA TYPHIMURIUM, Strain/Indicator: TA104, Metabolic Activation: RAT, LIVER, S-9, AROCLOR, Method: PREINCUBATION",inactive; negative
same,mutagenic call,[5],inactive; negative
same,mutagenic call,"Test System: AMES SALMONELLA TYPHIMURIUM, Strain/Indicator: TA1535, Metabolic Activation: RAT, LIVER, S-9, AROCLOR, Method: PREINCUBATION",inactive; negative
same,mutagenic call,"Test System: AMES SALMONELLA TYPHIMURIUM, Strain/Indicator: TPT100, Metabolic Activation: NONE, Method: PREINCUBATION",inactive; negative
same,mutagenic call,"Test System: AMES SALMONELLA TYPHIMURIUM, Strain/Indicator: TPT100, Metabolic Activation: NONE, Method: VAPOR PHASE",active; positive
CC(=O)O[C@H]1CC[C@@]2(C)C(=CC[C@H]3[C@@H]4CC[C@H]([C@H](C)CCCC(C)C)[C@@]4(C)CC[C@@H]32)C1,mutagenic call,"Test System: AMES SALMONELLA TYPHIMURIUM, Strain/Indicator: TA97A, Metabolic Activation: NONE, Method: STANDARD PLATE",inactive; negative
same,mutagenic call,"Test System: AMES SALMONELLA TYPHIMURIUM, Strain/Indicator: TA97A, Metabolic Activation: RAT, LIVER, S-9, AROCLOR 1254, Method: STANDARD PLATE",inactive; negative
same,mutagenic call,[6],inactive; negative
same,mutagenic call,"Test System: AMES SALMONELLA TYPHIMURIUM, Strain/Indicator: TA100, Metabolic Activation: RAT, LIVER, S-9, AROCLOR 1254, Method: STANDARD PLATE",inactive; negative
same,mutagenic call,"Test System: AMES SALMONELLA TYPHIMURIUM, Strain/Indicator: TA102, Metabolic Activation: NONE, Method: STANDARD PLATE",inactive; negative
same,mutagenic call,"Test System: AMES SALMONELLA TYPHIMURIUM, Strain/Indicator: TA102, Metabolic Activation: RAT, LIVER, S-9, AROCLOR 1254, Method: STANDARD PLATE",inactive; negative
same,mutagenic call,"Test System: AMES SALMONELLA TYPHIMURIUM, Strain/Indicator: TA104, Metabolic Activation: NONE, Method: STANDARD PLATE",inactive; negative
same,mutagenic call,"Test System: AMES SALMONELLA TYPHIMURIUM, Strain/Indicator: TA104, Metabolic Activation: RAT, LIVER, S-9, AROCLOR 1254, Method: STANDARD PLATE",inactive; negative
[O-][n+]1ccc2cnncc2c1,mutagenic call,[1],active; positive
same,mutagenic call,"Test System: AMES SALMONELLA TYPHIMURIUM, Strain/Indicator: TA98, Metabolic Activation: RAT, LIVER, S-9, PCB, Method: PREINCUBATION",active; positive
same,mutagenic call,[2],inactive; negative
same,mutagenic call,"Test System: AMES SALMONELLA TYPHIMURIUM, Strain/Indicator: TA100, Metabolic Activation: RAT, LIVER, S-9, PCB, Method: PREINCUBATION",active; positive
